In patent US7713994B2 (Wyeth LLC, priority 2005, dated 2010) one finds IC50 data, which are given here for 15 compounds.

Like-named read-outs stand apart in the source and are kept apart here.

For one test, the system named is BT474. In words: Cytotoxicity assay (SRB), BT474. In kind it is cell-based. The method, boiled down:
(§1)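 Cells seeded overnight at 37 °C, 7% CO2 (BT474 12000, HCT-116 4000, LoVo and MCF-7 6000 cells/well) in RPMI 1640 with 5% FBS, then exposed to compound dilutions for 3 days (BT474 6 days). Survival versus untreated controls by TCA fixation and SRB staining, absorbance 540 nm.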

The target of another test is T1, cyclin B/CDK1 enzyme (Homo sapiens, UniProt P06493).
T1 construct: purchased New England BioLabs; host or cells: Sf9 insect cells, recombinant baculovirus
T1 sequence (P06493 whole entry): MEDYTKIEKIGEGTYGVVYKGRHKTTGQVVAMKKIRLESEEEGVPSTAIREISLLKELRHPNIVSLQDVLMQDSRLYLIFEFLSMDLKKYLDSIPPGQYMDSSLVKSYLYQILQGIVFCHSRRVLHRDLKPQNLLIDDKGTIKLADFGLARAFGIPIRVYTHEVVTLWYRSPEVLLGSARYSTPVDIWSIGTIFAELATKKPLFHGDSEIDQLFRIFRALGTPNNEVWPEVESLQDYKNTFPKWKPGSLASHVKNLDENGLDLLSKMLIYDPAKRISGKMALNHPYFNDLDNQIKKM
T1 sequence (P14635 whole entry partner): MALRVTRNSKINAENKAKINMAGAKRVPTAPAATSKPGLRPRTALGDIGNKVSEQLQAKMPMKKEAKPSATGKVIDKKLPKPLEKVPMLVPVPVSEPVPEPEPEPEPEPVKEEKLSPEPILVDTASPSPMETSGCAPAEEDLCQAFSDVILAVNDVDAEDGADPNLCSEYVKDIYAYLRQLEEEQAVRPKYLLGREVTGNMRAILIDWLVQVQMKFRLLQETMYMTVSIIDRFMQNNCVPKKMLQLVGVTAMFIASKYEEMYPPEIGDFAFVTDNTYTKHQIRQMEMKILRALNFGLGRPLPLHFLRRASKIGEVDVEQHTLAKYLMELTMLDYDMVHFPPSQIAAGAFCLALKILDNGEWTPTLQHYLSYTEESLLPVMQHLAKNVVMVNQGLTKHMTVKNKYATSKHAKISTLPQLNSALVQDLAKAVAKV
In words: CDK1 ELISA kinase assay (phospho-Rb ser 795 detection). The class given is biochemical. The method, boiled down: (§2)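 GST-Rb C-terminal fragment coated on plates; partially purified Sf9-expressed cyclin D1/CDK4, cyclin E/CDK2 or cyclin B/CDK1 with 200 μM ATP, pH 7.5 HEPES/MgCl2 buffer, 1 h at 30 °C; screen compound final 10 μg/ml. Phospho-Rb Ser795 detected by antibody ELISA (TMB, A450); % of control, IC50 from background-subtracted inhibition curves.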

For a further test, the system named is MCF-7. As to the kind of experiment: Cytotoxicity assay (SRB), MCF-7. The class given is cell-based. The following applies: Homo sapiens, MCF7, 72 h, MCF-7 cells, SRB, read-out: In Vitro Cellular Activity IC50 MCF-7. In outline:
as §1

In a further test the test system is LoVo. As to the kind of experiment: Cytotoxicity assay (SRB), LoVo. The class given is cell-based. The following applies: Homo sapiens, LoVo, 72 h, LoVo cells, SRB, read-out: In Vitro Cellular Activity IC50 LOVO. The method, boiled down:
as §1

Another test has as its system HCT-116. In words: Cytotoxicity assay (SRB), HCT-116. In kind it is cell-based. The following applies: Homo sapiens, HCT-116, 72 h, HCT116 cells, SRB, read-out: In Vitro Cellular Activity IC50 HCT116. The method, boiled down: as §1
In a further test the target is T2, cyclin E/CDK2 enzyme (Homo sapiens, UniProt P24941).
T2 construct: made in house; host or cells: Sf9 insect cells, recombinant baculovirus
In words: CDK2 ELISA kinase assay (phospho-Rb ser 795 detection). The class given is biochemical. The method, boiled down:
as §2

The target of the next test is T3, cyclin D1/cdk 4 enzyme (Homo sapiens, UniProt P11802).
T3 construct: made in house; host or cells: Sf9 insect cells, recombinant baculovirus
T3 sequence (P11802 whole entry, species assumed): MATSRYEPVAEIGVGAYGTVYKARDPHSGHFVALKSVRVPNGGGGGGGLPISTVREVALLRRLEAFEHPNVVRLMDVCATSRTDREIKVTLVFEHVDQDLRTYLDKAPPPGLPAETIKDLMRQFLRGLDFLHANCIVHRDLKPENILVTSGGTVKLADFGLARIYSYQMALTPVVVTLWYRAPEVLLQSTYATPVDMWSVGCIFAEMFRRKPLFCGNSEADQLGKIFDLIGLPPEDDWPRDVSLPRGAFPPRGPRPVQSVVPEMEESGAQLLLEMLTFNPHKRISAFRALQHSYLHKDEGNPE
T3 sequence (P24385 whole entry partner, species assumed): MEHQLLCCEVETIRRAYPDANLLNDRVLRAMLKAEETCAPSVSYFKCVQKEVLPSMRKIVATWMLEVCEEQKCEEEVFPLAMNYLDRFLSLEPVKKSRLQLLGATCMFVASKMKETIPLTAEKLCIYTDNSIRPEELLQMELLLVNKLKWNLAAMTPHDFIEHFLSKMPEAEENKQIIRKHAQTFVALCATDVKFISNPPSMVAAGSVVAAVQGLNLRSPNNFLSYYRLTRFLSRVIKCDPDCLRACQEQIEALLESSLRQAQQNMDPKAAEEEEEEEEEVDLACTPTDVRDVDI
As to the kind of experiment: CDK4 ELISA kinase assay (phospho-Rb ser 795 detection). In kind it is biochemical. The method, boiled down:
as §2

The mark [1] stands for this setting: Homo sapiens, BT-474, 144 h, BT474 cells, 6 days, SRB; read-out: In Vitro Cellular Activity IC50 BT474.
Where [2] appears, read: In Vitro Enzyme Assay, cyclin B/CDK1, read-out: CDK1 IC50.
The mark [3] stands for this setting: In Vitro Enzyme Assay, cyclin E/CDK2, read-out: CDK2 IC50.
Where [4] appears, read: In Vitro Enzyme Assay, cyclin D1/cdk 4, read-out: CDK4 IC50.
Where [5] appears, read: Homo sapiens, BT-474, 144 h, BT474 cells, SRB, 6 days; read-out: In Vitro Cellular Activity IC50 BT474.
The mark [6] stands for this setting: In Vitro Enzyme Assays, read-out: CDK1 IC50.
The mark [7] stands for this setting: In Vitro Enzyme Assays, read-out: CDK2 IC50.
Setting [8] is: In Vitro Enzyme Assays, 200 μM ATP, read-out: CDK4 IC50.

Consider `CN1CCN(c2ccc(NC=C3C(=O)NC(=O)c4ccc(C=Cc5ccncc5)cc43)cc2)CC1` [Example 676, 4-{[4-(4-Methyl-piperazin-1-yl)-phenylamino]-methylene}-6-(2-pyridin-4-yl-vinyl)-4H-isoquinoline-1,3-dione], for which the IC50 was determined as 7.7 µM in the test on BT474 (setting [1]); 15.1 µM at cyclin B/CDK1 enzyme (setting [2]); 7.3 µM in the test on MCF-7 (3 days); 4.6 µM with LoVo (3 days); 2.5 µM with HCT-116 (3 days); 15.8 µM at cyclin E/CDK2 enzyme (setting [3]). At cyclin D1/cdk 4 enzyme (setting [4]), the IC50 was determined as 0.92 µM.
As to `C[C@@H]1CN(c2ccc(N/C=C3\C(=O)NC(=O)c4ccc(-c5ccc(F)cc5)cc43)cc2)C[C@H](C)N1` [Example 205, (4Z)-4-({[4-(3,5-Dimethylpiperazin-1-yl)phenyl]amino}methylene)-6-(4-fluorophenyl)-isoquinoline-1,3(2H,4H)-dione], the IC50 came out at 2.4 µM in the test on BT474 (setting [5]); 31 µM at cyclin B/CDK1 enzyme (setting [6]); 1.5 µM in the test with MCF-7 (three days); 3.1 µM in the test with LoVo (three days); 1.1 µM in the test with HCT-116 (three days); 48.6 µM on cyclin E/CDK2 enzyme (setting [7]). Besides, at cyclin D1/cdk 4 enzyme (setting [8]), the IC50 is 0.44 µM.
As for `C=C(CN(C)C)C(=O)Nc1ccc(CN/C=C2\C(=O)NC(=O)c3ccc(I)cc32)cc1O` [Example 338, 2-[(Dimethylamino)methyl]-N-[2-hydroxy-4-({[(Z)-(6-iodo-1,3-dioxo-2,3-dihydroisoquinolin-4(1H)-ylidene)methyl]amino}methyl)phenyl]acrylamide], the IC50 was determined as 2 µM in the test with BT474 (setting [5]); 13.8 µM on cyclin B/CDK1 enzyme (setting [6]); 0.94 µM in the test on MCF-7 (three days); 0.87 µM with LoVo (three days); 0.95 µM in the test with HCT-116 (three days); 2.8 µM at cyclin E/CDK2 enzyme (setting [7]). For the same compound, at cyclin D1/cdk 4 enzyme (setting [8]), the IC50 was found to be 0.1 µM.
`N=C(N)c1ccc(NC=C2C(=O)NCc3cc(Br)ccc32)cc1` [Example 861, 4-[(7-Bromo-3-oxo-2,3-dihydro-1H-isoquinolin-4-ylidenemethyl)-amino]-benzamidine]: the IC50 with BT474 (setting [1]) is 45.4 µM; at cyclin B/CDK1 enzyme (setting [2]), > 50 µM; in the test on MCF-7 (3 days), > 50 µM; in the test with LoVo (3 days), > 50 µM; in the test on HCT-116 (3 days), > 50 µM; on cyclin E/CDK2 enzyme (setting [3]), 3.6 µM. Further, the IC50 at cyclin D1/cdk 4 enzyme (setting [4]) turned out to be 14.3 µM.
Turning to `O=C1NC(=O)c2ccc(-c3cccc(C(F)(F)F)c3)cc2C1=CNCc1ccc(O)c(O)c1` [Example 773, 4-[(3,4-Dihydroxy-benzylamino)-methylene]-6-(3-trifluoromethyl-phenyl)-4H-isoquinoline-1,3-dione], the IC50 with BT474 (setting [1]) is 20.9 µM; at cyclin B/CDK1 enzyme (setting [2]), > 50 µM; in the test with MCF-7 (3 days), 12.6 µM; in the test on LoVo (3 days), 14.4 µM; in the test on HCT-116 (3 days), 13.7 µM; at cyclin E/CDK2 enzyme (setting [3]), 16.5 µM. Also, at cyclin D1/cdk 4 enzyme (setting [4]), the IC50 was found to be 1.18 µM.
Consider `CN(CCN1CCCCC1)c1ccc(N/C=C2\C(=O)NC(=O)c3ccc(Br)cc32)cc1` [Example 865, (4Z)-6-bromo-4-[({4-[methyl(2-piperidin-1-ylethyl)amino]phenyl}amino)methylene]isoquinoline-1,3(2H,4H)-dione], for which the IC50 in the test on BT474 (setting [1]) is 7.5 µM; at cyclin B/CDK1 enzyme (In Vitro Enzyme Assay, read-out: CDK1 IC50) it was > 50 µM; in the test with MCF-7 (3 days), 5.3 µM; in the test on LoVo (3 days) it was 3.6 µM; in the test with HCT-116 (3 days) it was 3.1 µM; on cyclin E/CDK2 enzyme (In Vitro Enzyme Assay, read-out: CDK2 IC50) it was > 50 µM. In addition, the IC50 at cyclin D1/cdk 4 enzyme (In Vitro Enzyme Assay, read-out: CDK4 IC50) is 4.3 µM.
`CN1CCN(c2ccc(NC=C3C(=O)NC(=O)c4ccc(C=Cn5ccnc5)cc43)cc2)CC1` [Example 680, 6-(2-Imidazol-1-yl-vinyl)-4-{[4-(4-methyl-piperazin-1-yl)-phenylamino]-methylene}-4H-isoquinoline-1,3-dione]: the IC50 in the test on BT474 (setting [1]) is 15.2 µM; on cyclin B/CDK1 enzyme (setting [2]), > 50 µM; in the test on MCF-7 (3 days), 6.9 µM; in the test on LoVo (3 days), 4.7 µM; in the test with HCT-116 (3 days), 5.9 µM; at cyclin E/CDK2 enzyme (setting [3]), > 50 µM. The IC50 at cyclin D1/cdk 4 enzyme (setting [4]) came out at 0.23 µM.
For `CC(=O)Nc1cc(CN/C=C2\C(=O)NC(=O)c3ccc(Br)cc32)cc(O)c1O` [Example 213], the IC50 was > 50 µM with BT474 (setting [5]); > 50 µM at cyclin B/CDK1 enzyme (setting [6]); > 50 µM in the test with MCF-7 (three days); 48 µM in the test with LoVo (three days); > 50 µM in the test with HCT-116 (three days); > 50 µM on cyclin E/CDK2 enzyme (setting [7]). Besides, on cyclin D1/cdk 4 enzyme (setting [8]), the IC50 is 0.19 µM.
For `CC(=O)Oc1cc(CN/C=C2\C(=O)NC(=O)c3ccc(Br)cc32)cc2c1OC(C)(C)O2` [Example 268, 6-({[(Z)-(6-Bromo-1,3-dioxo-2,3-dihydroisoquinolin-4(1H)-ylidene)methyl]amino}methyl)-2,2-dimethyl-1,3-benzodioxol-4-yl acetate], the IC50 with BT474 (setting [5]) is > 50 µM; at cyclin B/CDK1 enzyme (setting [6]), 1.2 µM; with MCF-7 (three days), 35 µM; in the test on LoVo (three days), 47 µM; with HCT-116 (three days) it was 29 µM; on cyclin E/CDK2 enzyme (setting [7]), 23.6 µM. Besides, at cyclin D1/cdk 4 enzyme (setting [8]), the IC50 was 34.7 µM.
Take `COc1ccc(NC=C2C(=O)NCc3cc(-c4ccc[nH]4)ccc32)cc1` [Example 849, 4-[(4-Methoxy-phenylamino)-methylene]-7-(1H-pyrrol-2-yl)-1,4-dihydro-2H-isoquinolin-3-one]: the IC50 is 6.8 µM in the test on BT474 (setting [1]); > 50 µM on cyclin B/CDK1 enzyme (setting [2]); 4.3 µM in the test on MCF-7 (3 days); 15.9 µM with LoVo (3 days); 12.8 µM in the test on HCT-116 (3 days); 40.6 µM at cyclin E/CDK2 enzyme (setting [3]). Further, the IC50 at cyclin D1/cdk 4 enzyme (setting [4]) was > 50 µM.
Turning to `O=C1NC(=O)c2ccc(-c3ccc(Cl)cc3Cl)cc2C1=CNCc1ccc(O)c(O)c1` [Example 823, 6-(2,4-Dichloro-phenyl)-4-[(3,4-dihydroxy-benzylamino)-methylene]-4H-isoquinoline-1,3-dione], the IC50 was determined as 21.4 µM in the test on BT474 (setting [1]); 9.4 µM on cyclin B/CDK1 enzyme (setting [2]); 14.8 µM in the test on MCF-7 (3 days); 12.3 µM in the test on LoVo (3 days); 11.9 µM in the test with HCT-116 (3 days); 2.4 µM at cyclin E/CDK2 enzyme (setting [3]). In addition, the IC50 on cyclin D1/cdk 4 enzyme (setting [4]) amounted to 0.22 µM.
For the compound `COc1ccc(CNC=C2C(=O)NC(=O)c3ccc(C=CCc4cccc(OC)c4O)cc32)cc1O` [Example 827, 4-[(3-Hydroxy-4-methoxy-benzylamino)-methylene]-6-[3-(2-hydroxy-3-methoxy-phenyl)-propenyl]-4H-isoquinoline-1,3-dione], the IC50 in the test on BT474 (setting [1]) is 26.5 µM; at cyclin B/CDK1 enzyme (setting [2]) it was > 50 µM; in the test on MCF-7 (3 days) it was 17.5 µM; with LoVo (3 days), 18.1 µM; with HCT-116 (3 days) it was 10.8 µM; on cyclin E/CDK2 enzyme (setting [3]), 45.5 µM. Also, the IC50 at cyclin D1/cdk 4 enzyme (setting [4]) was determined as 0.12 µM.
`CN(C)Cc1cccc(-c2ccc(CN/C=C3\C(=O)NC(=O)c4ccc(I)cc43)cc2O)c1` [Example 519, 4-{[(3′-Dimethylaminomethyl-2-hydroxy-biphenyl-4-ylmethyl)-amino]-methylene}-6-iodo-4H-isoquinoline-1,3-dione]: the IC50 is 2.2 µM in the test on BT474 (setting [1]); 17.3 µM on cyclin B/CDK1 enzyme (setting [2]); 1 µM in the test with MCF-7 (3 days); 1.4 µM in the test with LoVo (3 days); 0.82 µM in the test with HCT-116 (3 days); 6.5 µM on cyclin E/CDK2 enzyme (setting [3]). On cyclin D1/cdk 4 enzyme (setting [4]), the IC50 worked out at 0.01 µM.
Regarding `CN1CCN(c2ncc(N/C=C3\C(=O)NC(=O)c4ccc(I)cc43)cn2)CC1` [Example 475, (4Z)-6-Iodo-4-({[2-(4-methylpiperazin-1-yl)pyrimidin-5-yl]amino}methylene)isoquinoline-1,3(2H,4H)-dione], the IC50 in the test on BT474 (setting [1]) is 8.1 µM; at cyclin B/CDK1 enzyme (setting [2]), > 50 µM; in the test with MCF-7 (3 days) it was 2.2 µM; in the test on LoVo (3 days), 7.7 µM; in the test with HCT-116 (3 days), 3.2 µM; on cyclin E/CDK2 enzyme (setting [3]) it was > 50 µM. In addition, at cyclin D1/cdk 4 enzyme (setting [4]), the half-inhibitory concentration (IC50) worked out at 0.7 µM.
For the compound `O=C1NC(=O)c2ccc(I)cc2/C1=C/NCc1ccc(-c2ccccc2)c(O)c1` [Example 490, 4-{[(2-Hydroxy-biphenyl-4-ylmethyl)-amino]-methylene}-6-iodo-4H-isoquinoline-1,3-dione], the IC50 came out at 0.26 µM with BT474 (setting [1]); 47.8 µM at cyclin B/CDK1 enzyme (setting [2]); 0.88 µM in the test with MCF-7 (3 days); 0.34 µM in the test on LoVo (3 days); 0.42 µM with HCT-116 (3 days); 15.1 µM on cyclin E/CDK2 enzyme (setting [3]). The IC50 on cyclin D1/cdk 4 enzyme (setting [4]) worked out at 0.13 µM.
